Read-outs that look alike come from different tables or passages of the source.
Columns and labels:
[1] = set-up: method as in PMID 25388924; conditions: cited from earlier work
cells = system: cells; set-up: method as in PMID 32142290; conditions: cited from earlier work
[2] = Side effects after i.v. administration in mice; format: in vivo, Balb/c nude mice
in vivo [3] = conditions: female, Balb/c nude, mouse, intravenous, 0.3 mg/kg
Protocol: (§1) Mice were inoculated with 1 × 10^6 A431 cells suspended in 100 μL PBS subcutaneously into the right flank. […] Tumors were measured using a digital caliper. The tumor volume V (in mm^3) was calculated using the equation V = (π/6)LS^2, in which L is the largest and S is the smallest superficial diameter [30].
(§2) Tumors and a panel of organs (spleen, liver, lung, heart, kidney, skin, femur, and brain) were excised and imaged ex vivo by 2D fluorescence reflectance imaging (FRI) using a Pearl Trilogy imager from LI-COR and then stored at −80 °C until further processing for quantification. Organs and tumors from three untreated animals were used as controls.
(§3) To quantify the content of mTHPC and micelles in the tumors and the different organs, the excised tissue samples were treated as follows. First, 100 μL of RIPA lysis buffer was added to 100 mg of sliced tissues or organs. The mixture was homogenized by a tissue grinder (Percellys 24) at a speed of 6000/s for 60 s (for femur samples, 6000/s for 180 s) and the homogenate was subsequently aliquoted. To determine the mTHPC concentration in the samples, 1 volume of an aliquot of the homogenate (30 μL) was mixed with 120 μL of acetonitrile/DMSO (4:1 v/v) and vortexed for 1 min. The mixture was then centrifuged at 15,000× g for 10 min. Next, 50 μL of the obtained supernatant was injected into the HPLC system consisting of a Waters X Select Charged Surface Hybrid (CSH) C18 3.5 μm 4.6 × 150 mm column coupled with a fluorescence detector set at λex 420 nm and λem 650 nm to analyze mTHPC concentration [38]. The mobile phase was 0.1 % trifluoroacetic acid in acetonitrile/water (60:40, v/v) at a flow rate of 1 mL/min. The measuring range was from 0.005 to 4 μg/mL and the detection limit was 5 ng/mL. Calibration curves were obtained from a series of standard solutions of mTHPC in DMSO, to which 45 μL of the corresponding homogenized tissue samples obtained from control mice (i.e., not treated with any formulations) was added, followed by mTHPC extraction using acetonitrile/DMSO (4:1, v/v) and HPLC analysis.
(§4) To determine the concentration of Cy7-labeled micelles in the tissue homogenates, 1 volume of another aliquot of the homogenate (30 μL) was vortex-mixed with 2 volumes of RIPA lysis buffer (60 μL) for 1 min. The fluorescence of Cy7 in the mixture (20 μL) was detected at the 800 nm channel (i.e., λex 785 nm and λem 820 nm), using a LI-COR Odyssey scanner imaging system, and a calibration curve was obtained using samples with different concentrations of Cy7-labeled copolymer in a mixture of RIPA buffer (1 volume) and the corresponding homogenized tumor or organ samples (2 volumes) obtained from non-treated mice.

HeLa cells = system: HeLa cells; set-up: method as in PMID 32142290; conditions: cited from earlier work
A431 cells = system: A431 cells; set-up: method as in PMID 32142290; conditions: same conditions, cited from earlier work
[4] = Circulation kinetics in A431 tumor-bearing mice (plasma Cy7 and mTHPC); conditions: mTHPC detection, i.v. 300 µg mTHPC/kg
Protocol: as §1
(§5) For the latter, mice were killed through cervical dislocation while under deep isoflurane anesthesia. […] The plasma supernatant was collected, extracted using acetonitrile/DMSO (4:1, v/v), and analyzed by high-performance liquid chromatography (HPLC) and a LI-COR Odyssey imaging system to quantify the amount of mTHPC and Cy7-labeled micelles, respectively, as previously described [38]. Plasma concentration curves were analyzed by non-compartmental analysis with the PKSolver add-in for Microsoft Excel [40].

[5] = Biodistribution in A431 tumor-bearing mice (Cy7 fluorescence and mTHPC HPLC); conditions: 4 h
Protocol: as §1, §2, §3, §4

in vivo [6] = conditions: female, Balb/c nude, mouse, plasma, iv, 300 ug/kg
Protocol: as §1, §5

axially solketal-substituted silicon phthalocyanine [Si(sol)2Pc]
quenching concentration ([1]; in aromatic-substituted thermosensitive micelles, 0.45 mg/mL polymer): 16 µg/mL
quenching concentration ([1]; in corresponding non-aromatic micelles): ~ 0.05 µg/mL

Oc1cccc(-c2c3nc(c(-c4cccc(O)c4)c4ccc([nH]4)c(-c4cccc(O)c4)c4nc(c(-c5cccc(O)c5)c5ccc2[nH]5)CC4)C=C3)c1 [Free mTHPC, meta-tetra(hydroxyphenyl)chlorin]
mTHPC concentration toxic to cells without illumination (cells; after 7 h): higher than 50 µg/mL
mTHPC concentration toxic to cells without illumination (cells; after 24 h): > 20 µg/mL
side effects after i.v. administration ([2]; 300 µg mTHPC/kg, free mTHPC in ethanol/propylene glycol/PBS 20:30:50, micelles ~1 mg polymer, also reported in ref 38): tachypnea, passiveness immediately post-injection
loss of body weight ([2]; on average, within 24 h after i.v. injection): ~ 1 g
tissue uptake at 4 h (in vivo [3]; liver): ~15 %ID/g
tissue uptake at 24 h (in vivo [3]; liver): ~5 %ID/g
tissue uptake at 24 h (in vivo [3]; tumor, kidney, heart, femur): 2 to 3 %ID/g
EC50 (HeLa cells): 1.2 [38] µg/mL
EC50 (HeLa cells; listed as free mTHPC): ~ 1.5 µg/mL
EC50 (A431 cells; listed as free mTHPC): ~ 1.5 µg/mL
EC50 (A431 cells): 1.6 ± 0.1 [38] µg/mL
AUC [4]: 442 h*%
Half-life Phase α ([4]; estimated from first hour): ≤30 min
Half-life Phase β ([4]; non-compartmental analysis): 2.1 h
total mTHPC accumulation in liver [5]: ~ 15 % ID per liver
total mTHPC accumulation in spleen or lung [5]: ~ 1 % ID per spleen or lung
Vd (in vivo [6]): 0.12 L/kg
clearance (in vivo [6]): 0.22 mL/min/kg

Source: publication PMC7238042, “π-π-Stacked Poly(ε-caprolactone)-b-poly(ethylene glycol) Micelles Loaded with a Photosensitizer for Photodynamic Therapy” (Pharmaceutics, 2020)
